For 2 molecules, Activity (nanometer2/sec) and inhibition results are on record in ChEMBL document CHEMBL1240315, “Allosteric inhibition of kinesin-5 modulates its processive directional motility” (Nat Chem Biol, 2006).

Test [1] has as its target T1, Kinesin-like protein KIF11 (Homo sapiens) (UniProt P52732).
T1 sequence (whole entry): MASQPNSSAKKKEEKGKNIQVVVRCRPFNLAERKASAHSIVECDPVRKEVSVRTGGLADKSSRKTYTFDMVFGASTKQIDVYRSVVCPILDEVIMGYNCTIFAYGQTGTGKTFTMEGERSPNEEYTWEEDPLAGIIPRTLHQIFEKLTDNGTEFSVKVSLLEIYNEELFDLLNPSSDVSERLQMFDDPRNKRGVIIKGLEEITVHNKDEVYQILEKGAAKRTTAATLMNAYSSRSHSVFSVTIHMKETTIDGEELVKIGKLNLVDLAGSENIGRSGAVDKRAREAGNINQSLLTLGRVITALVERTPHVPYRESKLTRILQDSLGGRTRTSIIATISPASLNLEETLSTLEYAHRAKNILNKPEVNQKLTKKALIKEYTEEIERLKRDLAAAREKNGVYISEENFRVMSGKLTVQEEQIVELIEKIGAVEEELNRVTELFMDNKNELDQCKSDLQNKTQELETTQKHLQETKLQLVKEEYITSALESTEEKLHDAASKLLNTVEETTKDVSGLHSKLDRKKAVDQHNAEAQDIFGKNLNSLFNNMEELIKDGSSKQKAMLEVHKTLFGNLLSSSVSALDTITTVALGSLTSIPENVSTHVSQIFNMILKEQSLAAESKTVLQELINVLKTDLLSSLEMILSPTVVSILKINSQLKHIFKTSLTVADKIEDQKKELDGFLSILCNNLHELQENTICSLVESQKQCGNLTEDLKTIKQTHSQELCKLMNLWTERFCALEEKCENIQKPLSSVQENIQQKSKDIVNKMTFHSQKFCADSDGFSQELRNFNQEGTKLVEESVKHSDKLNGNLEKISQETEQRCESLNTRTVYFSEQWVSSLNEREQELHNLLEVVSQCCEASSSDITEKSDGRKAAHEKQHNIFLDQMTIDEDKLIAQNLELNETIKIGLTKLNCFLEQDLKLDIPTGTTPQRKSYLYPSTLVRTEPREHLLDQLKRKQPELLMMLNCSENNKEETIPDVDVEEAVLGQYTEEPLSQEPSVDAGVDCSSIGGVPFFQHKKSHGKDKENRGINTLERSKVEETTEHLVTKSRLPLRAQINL
The experiment in a line: Binding affinity to recombinant Eg5-GFP in cell-free system assessed as Eg5-GFP movement along microtubules without directionality at 2 mM by mean square displacement analysis.

Test [2] has as its target T1, Kinesin-like protein KIF11 (Homo sapiens). Briefly: Binding affinity to recombinant Eg5-GFP in cell-free system assessed as Eg5-GFP movement along microtubules without directionality at 2 mM by kymograph analysis.
Test [3] shares this target. The note with it: 100 uM.
Description: Inhibition of recombinant Eg5-GFP in cell-free system assessed as reduction of Eg5 motility speed on microtubule at 100 uM by kymograph analysis
The target is the same in test [4]. Particulars: 25 uM.
Description: Inhibition of recombinant Eg5-GFP in cell-free system assessed as Eg5 motility speed on microtubule at 25 uM by mean square displacement analysis in presence of 2 mM ATP
For test [5] the target is unchanged. Particulars: 100 uM. The source holds these as a separate data set.
Description: Inhibition of recombinant Eg5-GFP in cell-free system assessed as reduction in mean duration of Eg5-GFP-microtubule interaction at 100 uM by kymograph analysis
Test [6] shares this target. Particulars: 100 uM. This is another data set of the same source.
Description: Inhibition of recombinant Eg5-GFP in cell-free system assessed as Eg5 motility speed on microtubule at 100 uM by mean square displacement analysis in presence of 2 mM ATP
For test [7] the target is unchanged. Particulars: 100 uM. This is another data set of the same source.
Description: Inhibition of recombinant Eg5-GFP in cell-free system assessed as Eg5-GFP movement along microtubules without directionality at 100 uM by mean square displacement analysis in presence of 2 mM ADP

Active and inactive are the calls of the source. The calls are words filed in the database; no cut-off is given here.

`Nc1ncnc2c1ncn2[C@@H]1O[C@H](COP(=O)(O)OP(=O)(O)O)[C@@H](O)[C@H]1O`: the results for the Activity (nanometer2/sec) in test [1] and in test [2] were 771 and 4, respectively.

As to `CCOC(=O)C1=C(C)NC(=S)NC1c1cccc(O)c1` (configuration not stated), the inhibition result in test [3] and in test [5] was “inactive” in each case. Moreover, the Activity (nanometer2/sec) in test [4] was determined as 1460; in test [6], 2140; in test [7], 3820.
